Consider 35 compounds from US20250223281A1, “ANTIDIABETIC COMPOUNDS AND COMPOSITIONS” (REZUBIO PHARMACEUTICALS CO., LTD, priority 2022, published 2025).

The test has as its target T1, GPR40 (Homo sapiens, UniProt O14842).
T1 construct: expressed in transfected cells; host or cells: HEK293 cells stably expressing GPR40 (Hygromycin selection)
Nature of the test: IP1 accumulation assay in HEK293 cells stably expressing GPR40. In kind it is cell-based. The essentials:
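HEK293 cells stably expressing human GPR40 were incubated with compounds (10-point, 3-fold dilution series) for 2 h at 37 °C, then IP1 was detected by HTRF (665/615 nm ratio). Effect was normalised to DMSO blank and AMG-1638 as 100%, and EC50 was derived from dose curves.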

The mark [1] stands for this setting: IP1 accumulation, HEK293 cells stably expressing GPR40, 2 hours at 37° C., % effect relative to AMG-1638, table of Biological Example 1.
The mark [2] stands for this setting: Tables A-1a to A-7b (structure-property relationship), obtained by methods of Biological Example 1.
[3] abbreviates: Table A-8 (additional examples), obtained by methods of Biological Example 1.

T1 sequence (O14842 whole entry): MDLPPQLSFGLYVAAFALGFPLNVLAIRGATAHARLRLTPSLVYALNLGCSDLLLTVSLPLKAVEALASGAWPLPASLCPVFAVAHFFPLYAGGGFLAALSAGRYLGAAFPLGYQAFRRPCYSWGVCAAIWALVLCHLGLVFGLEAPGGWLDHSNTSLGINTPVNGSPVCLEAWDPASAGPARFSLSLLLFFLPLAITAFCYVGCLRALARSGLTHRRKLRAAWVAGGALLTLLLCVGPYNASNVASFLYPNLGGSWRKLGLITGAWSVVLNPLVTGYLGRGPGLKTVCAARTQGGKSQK

For the compound `C[C@H](C(=O)O)[C@H](c1ccc2c(c1)O[C@@H](C1CCN(Cc3cc(-c4cn(CCCCCCCCCCCCCCCC(=O)NCC[N+](C)(CCC(=O)NCCN)CCC(=O)NCCN)nn4)ccc3OC(F)(F)F)CC1)CC2)C1CC1` [Example 84], the 50% effective concentration (EC50) (commonly the midpoint of the concentration-response curve) runs as follows: under setting [1], 0.74 nM; under setting [2], 0.74 nM. As to `COc1ccc(C(=O)N(CC(C)(C)CCn2cc(CCCCCCCCCCCCCCC(=O)NCCC[N+](C)(CC(=O)[O-])CC(=O)O)nn2)c2cccc(C)n2)c(N2CCC(COc3cc([C@@H](CC(=O)O)C4CC4)ccn3)CC2)c1` (stereo partly drawn) [Example 131], the EC50 under setting [1] is 0.38 nM and the EC50 under setting [2] was 0.38 nM.

Compound `COc1ccc(C(=O)N(CC(C)(C)CCn2cc(CCCCCCCCCCCCCC(=O)NCCCN(CC(=O)O)CC(=O)O)nn2)c2cccc(C)n2)c(N2CCC(COc3cc([C@@H](CC(=O)O)C4CC4)ccn3)CC2)c1` [Example 128] gave an EC50 under setting [1] of 1.33 nM and a 50% effective concentration (EC50) under setting [2] of 1.33 nM.

For `COc1ccc(F)c(-c2ccc(COc3cccc([C@@H](CC(=O)O)C4CC4)c3)cc2CC(C)(C)Cc2cn(CCCCCCCCCCCCCCCC(=O)NCCN(CCC(=O)NCCN)CCC(=O)NCCN)nn2)c1` [Example 89], the EC50 reads like this: under setting [1], 2.19 nM; under setting [2], 2.19 nM. Consider `COc1ccc(F)c(-c2ccc(COc3cccc([C@@H](CC(=O)O)C4CC4)c3)cc2C(OC)C(C)(C)Cn2cc(CCCCCCCCCCCCCCCCCC(=O)NCC[N+](C)(CCC(=O)NCCN)CCC(=O)NCCN)nn2)c1` (stereo partly drawn) [Example 15], for which, under setting [1], a half-maximal response (EC50) required 58.4 nM. Still for that read-out and setting: the same measure for `COc1ccc(C(=O)N(CC(C)(C)CCCCCCn2cc(CCCCCCCCCC(=O)NCCC[N+](C)(CC(=O)[O-])CC(=O)O)nn2)c2cccc(C)n2)c(N2CCC(COc3cc([C@@H](CC(=O)O)C4CC4)ccn3)CC2)c1` (stereo partly drawn) [Example 208]: 5.15 nM; for `COc1ccc(F)c(-c2ccc(COc3cccc([C@@H](CC(=O)O)C4CC4)c3)cc2OC(C)(C)COCc2cn(CCCCCCCCCCCCCCCCCC(=O)NCCN(CCC(=O)NCCN)CCC(=O)NCCN)nn2)c1` [Example 27]: 5.32 nM. For `COc1ccc(C(=O)N(CC(C)(C)CCCCCCn2cc(CCCCCCCCCCCCC(=O)NCC[N+](C)(CCC(=O)NCCN)CCC(=O)NCCN)nn2)c2cccc(C)n2)c(N2CCC(COc3cc([C@@H](CC(=O)O)C4CC4)ccn3)CC2)c1` [Example 43], the half-maximal effective concentration (EC50) is, setting by setting: under setting [1], 0.21 nM; under setting [2], 0.21 nM.

As to `COc1ccc(F)c(-c2ccc(COc3cccc([C@@H](CC(=O)O)C4CC4)c3)cc2OC(C)(C)Cn2cc(CCCCCCCCCCC(=O)NCCN(CCC(=O)NCCN)CCC(=O)NCCN)nn2)c1` [Example 137], it took 2600 nM to reach a half-maximal effect under setting [1] (EC50).

Consider `COc1ccc(F)c(-c2ccc(COc3cccc([C@@H](CC(=O)O)C4CC4)c3)cc2CC(C)(C)Cn2cc(CCCCCCCCCCCCCCC(=O)NCC[N+](C)(CCC(=O)NCCN)CCC(=O)NCCN)nn2)c1` [Example 58], for which the EC50 came to 36.5 nM under setting [1] and 8.14 nM under setting [2]. Turning to `COc1ccc(F)c(-c2ccc(COc3cccc([C@@H](CC(=O)O)C4CC4)c3)cc2OC(C)(C)Cn2cc(CCCCCCCCCCCCCCCCCC(=O)NCCN(CCC(=O)NCCN)CCC(=O)NCCN)nn2)c1` [Example 31], the EC50 under setting [1] stood at 2.28 nM.

Under setting [1], `COc1ccc(F)c(-c2ccc(COc3cccc([C@@H](CC(=O)O)C4CC4)c3)cc2OC(C)(C)Cn2cc(CCCCCCCCC(=O)NCC[N+](C)(CCC(=O)NCCN)CCC(=O)NCCN)nn2)c1` [Example 140] yielded an EC50 of over 10000 nM. Consider `COc1ccc(C(=O)N(CC(C)(C)CCn2cc(CCCCCCC(=O)NCC[N+](C)(CCC(=O)NCCN)CCC(=O)NCCN)nn2)c2cccc(C)n2)c(N2CCC(COc3cc([C@@H](CC(=O)O)C4CC4)ccn3)CC2)c1` [Example 200], for which the EC50 by setting is: under setting [1], over 10000 nM; under setting [2], over 10000 nM. As for `COc1ccc(C(=O)N(CC(C)(C)CCn2cc(CCCCCCCCCCCCCCCCC(=O)NCCCN(CC(=O)O)CC(=O)O)nn2)c2cccc(C)n2)c(N2CCC(COc3cc([C@@H](CC(=O)O)C4CC4)ccn3)CC2)c1` [Example 132], the EC50 is, setting by setting: under setting [1], 0.19 nM; under setting [2], 0.19 nM. With `COc1ccc(F)c(-c2ccc(COc3cccc([C@@H](CC(=O)O)C4CC4)c3)cc2CC(C)(C)Cc2cn(CCCCCCCCCCCC(=O)NCC[N+](C)(CCC(=O)NCCN)CCC(=O)NCCN)nn2)c1` [Example 97], the EC50 under setting [1] came to 328 nM and the 50% effective concentration (EC50) under setting [2] is 328 nM. Regarding `COc1ccc(F)c(-c2ccc(COc3cccc([C@@H](CC(=O)O)C4CC4)c3)cc2OC(C)(C)Cn2cc(CCCCCCCCCCCCC(=O)NCC[N+](C)(CCC(=O)NCCN)CCC(=O)NCCN)nn2)c1` [Example 30], under setting [1], the EC50 was found to be 298 nM. `COc1ccc(F)c(-c2ccc(COc3cccc([C@@H](CC(=O)O)C4CC4)c3)cc2CC(C)(C)Cn2cc(COCCOCCOCCOCCOCC(=O)NCCN(CCC(=O)NCCN)CCC(=O)NCCN)nn2)c1` [Example 167]: the 50% effective concentration (EC50) is, setting by setting: under setting [1], over 10000 nM; under setting [3], over 10000 nM. Consider `C[C@H](C(=O)O)[C@H](c1ccc2c(c1)O[C@@H](C1CCN(Cc3cc(-c4cn(CCCCCCCCCCCCCCCCCCN(C)CCOCCOCCOCCOCCN5C[C@H](O)[C@@H](O)[C@H](O)[C@H]5CO)nn4)ccc3OC(F)(F)F)CC1)CC2)C1CC1` [Example 50], for which the concentration giving a half-maximal response (EC50) under setting [1] was 8.46 nM. `COc1ccc(F)c(-c2ccc(COc3cccc([C@@H](CC(=O)O)C4CC4)c3)cc2CC(C)(C)Cn2cc(CCCCCCCCCCCCCCCCCC(=O)NCCC[N+](C)(C)CC(=O)NCCN)nn2)c1` [Example 148]: under setting [1], the EC50 came out at 0.43 nM.

Take `COc1ccc(F)c(-c2ccc(COc3cccc([C@@H](CC(=O)O)C4CC4)c3)cc2CC(C)(C)Cc2cn(CCCCCCCCCCCCCC(=O)NCCN(CCC(=O)NCCN)CCC(=O)NCCN)nn2)c1` [Example 21]: the EC50 was 49.4 nM under setting [1] and 49 nM under setting [2].

With `COc1ccc(F)c(-c2ccc(COc3cccc([C@@H](CC(=O)O)C4CC4)c3)cc2OC(C)(C)COCc2cn(CCCCCCCCCCCCCC(=O)NCCN(CCC(=O)NCCN)CCC(=O)NCCN)nn2)c1` [Example 25], the 50% effective concentration (EC50) under setting [1] amounted to 132 nM. As for `C[C@H](C(=O)O)[C@H](c1ccc2c(c1)O[C@@H](C1CCN(Cc3cc(-n4cc(CCCCCCCCCCCCCCCC(=O)NCC[N+](C)(CCC(=O)NCCN)CCC(=O)NCCN)nn4)ccc3OC(F)(F)F)CC1)CC2)C1CC1` [Example 186], the concentration giving a half-maximal response (EC50) was determined as 0.03 nM under setting [1], 0.05 nM under setting [3] and 0.05 nM under setting [2]. `COc1ccc(F)c(-c2ccc(COc3cccc([C@@H](CC(=O)O)C4CC4)c3)cc2CC(C)(C)Cn2cc(COCCOCCOCC(=O)NCCN(CCC(=O)NCCN)CCC(=O)NCCN)nn2)c1` [Example 165]: the EC50 runs as follows: under setting [1], over 10000 nM; under setting [3], over 10000 nM. Consider `COc1ccc(C(=O)N(CC(C)(C)CCn2cc(CCCCCCCCCCCCCCCCCC(=O)NCCCN(C)CC(=O)NCCN)nn2)c2cccc(C)n2)c(N2CCC(COc3cc([C@@H](CC(=O)O)C4CC4)ccn3)CC2)c1` [Example 150], for which, under setting [1], the concentration giving a half-maximal response (EC50) was found to be 0.07 nM. Still for that read-out and setting: in the case of `COc1ccc(F)c(-n2nnc(COc3cccc([C@@H](CC(=O)O)C4CC4)c3)c2CC(C)(C)Cn2cc(COCCOCCOCCOCCOCC(=O)NCC[N+](C)(CCC(=O)NCCN)CCC(=O)NCCN)nn2)c1` [Example 182] it was over 10000 nM; in that of `COc1ccc(F)c(-c2ccc(COc3cccc([C@@H](CC(=O)O)C4CC4)c3)cc2C(OCCCCCn2cc(CCCCCCCCCCCCC(=O)NCCN(CCC(=O)NCCN)CCC(=O)NCCN)nn2)C(C)(C)C)c1` (stereo partly drawn) [Example 33], 36.8 nM; in that of `COc1ccc(F)c(-c2ccc(COc3cccc([C@@H](CC(=O)O)C4CC4)c3)cc2CC(C)(C)Cn2cc(CCCCCCCCCCCCCCCCCC(=O)NCCC[N+](C)(CC(=O)NCCN)CC(=O)NCCN)nn2)c1` [Example 157], 0.54 nM. As for `COc1ccc(C(=O)N(CC(C)(C)CCn2cc(CCCCCCCCCCC(=O)NCC[N+](C)(CCC(=O)NCCN)CCC(=O)NCCN)nn2)c2cccc(C)n2)c(N2CCC(COc3cc([C@@H](CC(=O)O)C4CC4)ccn3)CC2)c1` [Example 113], it took 6.27 nM to reach a half-maximal effect under setting [1] (EC50) and the midpoint of the response under setting [2], the EC50, lay at 6.27 nM. The compound `COc1ccc(F)c(-n2nnc(COc3cccc([C@@H](CC(=O)O)C4CC4)c3)c2CC(C)(C)Cn2cc(COCCOCCOCCOCCOCC(=O)NCCN(CCC(=O)NCCN)CCC(=O)NCCN)nn2)c1` [Example 180] showed an EC50 under setting [1] of over 10000 nM. As for `C[C@H](C(=O)O)[C@H](c1ccc2c(c1)O[C@@H](C1CCN(Cc3cc(-n4cc(COCCOCCOCCOCCOCC(=O)NCCN(CCC(=O)NCCN)CCC(=O)NCCN)nn4)ccc3OC(F)(F)F)CC1)CC2)C1CC1` [Example 173], the concentration for a half-maximal effect (EC50) is over 10000 nM under setting [1] and over 10000 nM under setting [3]. Under setting [1], `C[C@H](C(=O)O)[C@H](c1ccc2c(c1)O[C@@H](C1CCN(Cc3cc(-c4cn(CCCCCCCCCCCCCCCCCC(=O)NCC[N+](C)(C)CCCS(=O)(=O)[O-])nn4)ccc3OC(F)(F)F)CC1)CC2)C1CC1` [Example 46] came in with an EC50 of 2.03 nM. The same measure, in the same setting: the same measure for `C[C@H](C(=O)O)[C@H](c1ccc2c(c1)O[C@@H](C1CCN(Cc3cc(-n4cc(CCCCCCCCCCCCCCCCCC(=O)NCC[N+](C)(C)CCCS(=O)(=O)[O-])nn4)ccc3OC(F)(F)F)CC1)CC2)C1CC1` [Example 66]: 0.49 nM; for `COc1ccc(F)c(-c2ccc(COc3cccc([C@@H](CC(=O)O)C4CC4)c3)cc2CC(C)(C)Cn2cc(CCCCCCCCCCCCCC(=O)NCCC[N+](C)(CC(=O)NCCN)CC(=O)NCCN)nn2)c1` [Example 155]: 18.8 nM. The same measure, in the same setting: the same measure for `COc1ccc(C(=O)N(CC(C)(C)CCn2cc(CCCCCCCCC=CCCCCCCCCC(=O)NCCC[N+]34CCN(CC3)CC4)nn2)c2cccc(C)n2)c(N2CCC(COc3cc([C@@H](CC(=O)O)C4CC4)ccn3)CC2)c1` [Example 221]: 0.98 nM; for `COc1ccc(F)c(-c2ccc(COc3cccc([C@@H](CC(=O)O)C4CC4)c3)cc2CC(C)(C)Cn2cc(CCCCCCCCCCCCCCCC(=O)NCCCN(CC(=O)O)CC(=O)O)nn2)c1` [Example 121]: 5 nM.
